Earlier results as cited in US20090214598A1, “Monovalent and polyvalent synthetic polysaccharide antigens for immunological intervention in disease” (Eli Lilly and Company, priority 2005, published 2009).

Details: literature reports (U.S. Pat. No. 4,395,399; Chedid 1983)

For `CC(=O)N[C@H]1C(O)O[C@H](CO)[C@@H](O)[C@@H]1O[C@H](C)C(=O)N[C@@H](C)C(=O)N[C@H](CCC(=O)O)C(N)=O` (mixture of isomers) [MDP, muramyl dipeptide], the “inflammatory response as reported” value is given as “inflammatory in nature”.
